Laboratory results: patent publication US20060019977A1, “Spiroheterocyclic derivative compounds and drugs comprising the compound as the active ingredient” (ONO PHARMACEUTICAL CO., LTD., priority 2002, published 2006)
Counter-ions that a name gives are not always drawn.

Target: T1, human CCR5 (Homo sapiens, UniProt P51681)
T1 construct: expressed in transfected cells
Test: Inhibition test on the binding of RANTES to CCR5 (RANTES-induced transient increase of Ca ion in CCR5/CHO cells)
Type: cell-based
Conditions: human CCR5 stably over-expressing CHO cells; 10 nM recombinant human RANTES; Ca2+ transient increase (Fura-2AM)
Method: Specifically, e.g., since CCR5 is a G protein-coupled seven transmembrane type receptor, an assay system in which the effect of RANTES on the transient increase of Ca ion induced via CCR5 is measured can be carried out as an assay system for screening a compound capable of inhibiting binding of RANTES to CCR5. Since both of the T cell tropic (X4) HIV and SDF-1 bind to CXCR4, similar idea can be considered.
(1) Isolation of Human CCR5 Gene
Human placental cDNA was prepared using Marathon cDNA amplification kit (Clontech). PCR primers hCCR5XbaI-F1: • 5′-[…]-3′ (SEQ ID NO:1) and hCCR5XbaI-R1: • 5′-[…]-3′ (SEQ ID NO:2) were designed based on the sequence of GenBank U54994. […]
The thus established human CCR5 stably over-expressing CHO cell (CCR5/CHO cell) was suspended in Ham's F-12 medium containing FBS (10%) and dispensed in […] portions into a 96 well plate. […] Transient increase in the intracellular Ca^2+ concentration induced by the human RANTES was measured using a Ca^2+ detector for 96 well use (Hamamatsu Photonics), and inhibition ratio (%) of the test compound was calculated by the following calculation formula. Inhibition ratio=(Ec−Ea)/Ec×100 • Ec: measured value of Ca^2+ transient increase by RANTES • Ea: measured value of Ca^2+ transient increase by RANTES when a test compound was added

T1 sequence (P51681 whole entry): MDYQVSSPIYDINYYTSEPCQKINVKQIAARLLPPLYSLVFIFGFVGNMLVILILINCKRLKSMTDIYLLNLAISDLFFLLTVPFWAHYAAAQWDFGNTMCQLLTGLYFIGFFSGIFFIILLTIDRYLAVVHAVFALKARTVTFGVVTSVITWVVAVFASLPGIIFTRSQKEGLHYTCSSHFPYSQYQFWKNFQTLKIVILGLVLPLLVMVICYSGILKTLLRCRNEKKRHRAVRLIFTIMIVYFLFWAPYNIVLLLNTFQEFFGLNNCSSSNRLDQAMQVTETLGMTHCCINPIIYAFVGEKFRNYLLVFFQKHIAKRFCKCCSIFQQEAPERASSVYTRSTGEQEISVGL

| IC50 | Structure (SMILES) |
| --- | --- |
| 0.74 µM | CCCCN1C(=O)[C@@H]2CSCN2C(=O)C12CCN(Cc1ccc(Oc3ccccc3)cc1)CC2 [Example 1(1), (3R)-1-butyl-2,5-dioxo-3,4-(2-thiapropano)-9-[(4-phenoxyphenyl)methyl]-1,4,9-triazaspiro[5.5]undecane hydrochloride] |
| 0.012 µM | CCCCN1C(=O)C2(CCCC2)NC(=O)C12CCN(Cc1ccc(Oc3ccc(C(=O)NC)cc3)cc1)CC2 [Example 5, 1-butyl-2,5-dioxo-3,3-butano-9-[4-(4methylcarbamoylphenoxy)benzyl]-1,4,9-triazaspiro[5.5]undecane hydrochloride] |
